Assay: Six-month long-term toxicity evaluation (metabolic rate)
Format: in vivo
Conditions: male Sprague Dawley rats, gavage 1, 10 and 500 mg/kg daily, six months
Protocol: To evaluate D-P's safety, we tested dosages of 1, 10, and 500 mg/kg (500 time high concentration) of D-P in rats. Sprague Dawley rats, male, body weight starting at 175±5 g, were used in this study. Control group rats were gavaged SUC 20 ml/kg, and D-P group rats were gavaged 1, 10, and 500 mg/kg D-P every day for six months.

piperidin-1-ium (2R,3R)-2-(3,4-dihydroxy-5-oxidophenyl)-3,5-dihydroxy-4-oxochroman-7-olate [D-P]
metabolic rate: did not alter the metabolic rate

Reference: patent US12194021B2, “Modified herbal compositions for neuromodulation” (University of Southern California, priority 2021, dated 2025)
